Read-outs that look alike come from different tables or passages of the source.
Assays:
serotonin = details: six consecutive doses, cited from earlier work
[1] = test system: hematopoietic compartment; assay: Flow cytometry of hematopoietic cell populations in bone marrow (Example 11); type: in vivo, mice
Procedure: Freshly isolated bone marrow cells or spleen cells were resuspended in flow-staining buffer (PBS plus 2% FBS) and the primary conjugated antibodies were added. After 30 minutes incubation at 4° C., the cells were then washed twice before flow cytometry analysis. The following antibodies conjugated with fluorescein isothiocyanate (FITC), Allophycocyanin (APC) phycoerythrin (PE), PE-Cy7, APC-CY7, Pacific Blue, and Alexa 700 were used: Lineage cocktail (B220, CD19, IL-7R chain, CD3, DX5, Gr-1, Ter119, CD71 and CD41), B220 (6B2), CD19 (1D3), IgM (II/41), CD3 (KT31.1), CD4 (GK1.5), CD8 (53-6.7), Gr-1 (8C5), Mac1/CD11b (M1/70), Ter119, CD71 (C2), c-Kit (2B8), Sca-1 (E13-161-7), CD34 (RAM34), FcRII/III (2.4G2) or CD135/Flt-3 (all from Becton Dickinson, San Diego, Calif.).
The cell cycle analysis of LSK cells was determined by staining for 30 min at 37° C. with Hoechst 33342 (Molecular Probes) and pyronin Y (Sigma). Seven-color flow cytometry acquisition was performed using a LSR II flow cytometer (Becton Dickinson) and analysis using FLO-JO software (Treestar, Inc). Cells were gated for size, shape and granularity using forward and side scatter parameters. The positive populations were identified as cells that expressed specific levels of fluorescence activity above the nonspecific auto fluorescence of the isotype control. Nonspecific binding was reduced by preincubation with unconjugated anti-FcRII/III (2.4G2). For Flow sorting EL4-GFP-Luc cells were resuspended in flow staining buffer, and flow sorting was performed using FACSAria (BD). Sorted GFP positive cells were then subsequently cultured for 12 hours and injected into the mice.
The methods used in Example 8 to measure the various cell types were used.
Mice treated as described in Example 9 were examined.

[2] = test system: EL4-GFP-Luc lymphoma/lymphoblastic cells; assay: EL4-GFP-Luc lymphoblastic leukemia mouse model, long-term oral LP-533401 treatment (Example 9); type: in vivo, mice
Procedure: 8- to 10-week-old immunocompetent male mice were inoculated with tumor cells by tail vein injection. The EL4 cell line was established from a lymphoma-induced tumor in a C57BL mouse by 9,10-dimethyl-1,2-benzanthacene. An EL4 cell line transduced with green fluorescence protein and luciferase, EL4-GFP-Luc, was injected via the lateral tail vein of the B6(Cg)-Tyrc-2J mice (500,000 cells per mouse). The EL4-GFP-Luc fusion gene was used to allow cell trafficking and tumor progression to be assessed by an in vivo imaging system.
Leukemia engraftment and progression was monitored using the Xenogen IVIS-200 System (IVIS® imaging system, Xenogen Corporation), an in vivo imaging technology platform that allows non-invasive visualization, and tracking of cellular and genetic activity within a living organism. The system consists of a CCD camera mounted on a light-tight specimen chamber, a camera controller, a cryogenic cooler, a fluorescence light source and a computer system for data acquisition and analysis. The system is capable of imaging bioilluminescence and fluorescence in living animals.
In this study, since luminescence was being detected, luciferin as a substrate of luciferase was administered to the mice. The mice were monitored using the in vivo imaging system twice per week. Mice were anaesthetized using isoflurane, and then were injected intraperitoneally with luciferin (0.15 mg per g body weight) 10 minutes before the detection point. Mice were imaged using the in vivo system, setting the exposure time to 1 minute. Bioilluminescence intensity was recorded and counted.
Blood was collected by cardiac puncture in EDTA (CBCs and blood smears) or non-EDTA (serum) coated tubes. For serum preparation, blood was kept at room temperature for 15 minutes and centrifuged at 15,700 g for 10 min at 4° C. Serum osteocalcin was measured using the Osteocalcin IRMA kit (Immutopics).
Time-to-event analysis was used to assess two endpoints of interest, death and paralysis. The day which mice were inoculated with tumor cells was considered Day 1. Animals were followed up to 62 days. […] Kaplan-Meier curves were generated to illustrate time to death and paralysis, stratified by group status. Statistical significance of the between-group difference in the median time-to-endpoint was assessed by the log-rank test. Statistical analyses were performed using the EXCEL-XLSTAT and SAS softwares0. A P value less than 0.05 was considered statistically significant.
Mice injected with the EL-4 cell line, EL4-GFP-Luc, were used as described in Example 2. The imaging system describe in Example 2 was used.
Mice were treated orally with LP-533401 (25 or 200 mg per kg of body weight per day) or vehicle. Treatments started 15 days before malignant cell injections in all sets of experiments, and continued for the indicated periods of time. LP-533401 was dissolved in polyethylene glycol (PEG) and 5% dextrose or 2.5% glucose (Sigma), and given daily by oral gavage. Mice treated with vehicle were administered, in the same way as LP533401, a solution of PEG and 5% dextrose or 2.5% glucose, daily, by oral gavage.
The mice were divided into four groups of mice: • Mice with no leukemia treated with a vehicle, i.e., non-leukemic-vehicle-treated (“WT”); • Mice with no leukemia treated with LP533401, i.e., non-leukemic-LP-533401-treated (“NL-LP”); • Mice with leukemia treated with a vehicle, i.e., leukemic-vehicle-treated (“Leuk-veh”); and • Mice with leukemia treated with LP-533401, leukemic-LP533410-treated (“Leuk-LP”).
Treatment of the non-leukemic mice with the vehicle or LP-533401 lasted a total of 35 days and treatment of the leukemic animals with a vehicle or LP-533401 continued until the day mice were sacrificed, which occurred at different time points, depending upon the presence of signs of illness. […]

[3] = among ten leukemic mice treated
[4] = leukemic mice (EL4), peripheral blood

In the case of `Nc1nc(OC(c2ccc(-c3cccc(F)c3)cc2)C(F)(F)F)cc(-c2ccc(C[C@H](N)C(=O)O)cc2)n1` (some centres unmarked) [LP-533401], the “serotonin levels in the small intestine lowered” value (serotonin; 30 mg/kg twice per day) is given as 55%, the “serotonin levels in the small intestine lowered” value (serotonin; 90 mg/kg twice per day) is given as 70% and the brain-derived serotonin (serotonin; 30 or 90 mg/kg twice per day) is given as “unchanged”. The “numbers of LSK FLT3+ cells” value ([1]; healthy and leukemic mice) was “reduced the numbers”, the B-lymphopoiesis ([1]; leukemic animals) was “did not affect” and the “GMP and CMP populations” value ([1]; leukemic mice) was “further suppressed their frequencies”. The “LSK FLT3+ lymphoid progenitor cell subset (percentage)” value ([1]; leukemic mice) was “not affected”, the MEP subsets ([1]; leukemic mice) was “not affected” and the “TER119+ erythroid progenitor cells” value ([1]; leukemic mice) was “increased”. For the same compound, the “increase in CD3+ cells” value ([1]; leukemic mice) was “prevented the increase”, the “increase in CD11b+GR1+ myeloid cells” value ([1]; leukemic mice) was “limited the increase” and the “leukemia-induced increase of LSK cells in the bone marrow” value ([1]; leukemic mice) was “hampered”. For the same compound, the “leukemia-reduced total bone marrow cellularity” value ([1]; leukemic mice) was “not altered”, the “CMPs and MEPs” value ([1]; non-leukemic mice) was “not affected” and the “GMPs and more mature myeloid cells” value ([1]; non-leukemic mice) was “decreased”. For the same compound, the “LSK cells in the bone marrow compared to wild-type” value ([1]; non-leukemic mice) was “decrease”, the “Ter119+ erythroid cells” value ([1]; non-leukemic mice) was “increased” and the “lymphoid lineage, including B and T cells” value ([1]; non-leukemic mice) was “no effect”. For the same compound, the “total bone marrow cellularity” value ([1]; non-leukemic mice) was “did not affect”, the “number of treated leukemic mice that cleared their leukemia” value [2, 3] was 2 and the “number of treated leukemic mice that never developed leukemia” value [2, 3] was 2. The “number of treated leukemic mice that developed leukemia at a late stage and then recovered” value ([2]; among ten leukemic mice treated, day 28) was 1, the “animals that developed hind-limb paralysis” value ([2]; leukemic mice (EL4)) was 38% and the reticulocyte numbers ([2]; leukemic mice (EL4)) was “prevented leukemia induced suppression of reticulocyte numbers”. The “tumor burden by bioluminescence imaging / luciferase intensity” value ([2]; leukemic mice (EL4)) was “decreased tumor burden”, the “anemia (red blood cells, hemoglobin, hematocrit)” value [2, 4] was “ameliorated anemia” and the “leukemia-associated increase in WBCs” value [2, 4] was “diminished”. The “neutrophils, monocytes and lymphocytes” value [2, 4] was “restored to normal numbers” and the overall survival ([2]; mice with leukemia (EL4)) was “significantly longer overall survival”.

Source: patent publication US9717727B2, “Methods of treating and preventing leukemia and other cancers of the blood and bone” (The Trustees of Columbia University in the City of New York, priority 2011, dated 2017)
